From patent US9029336B2, “Xenobiotic related induction of gene expression” (The University of Sydney, priority 1998, dated 2015)

Target: T1, hPXR (Homo sapiens, UniProt O75469)
T1 sequence (O75469 1-434): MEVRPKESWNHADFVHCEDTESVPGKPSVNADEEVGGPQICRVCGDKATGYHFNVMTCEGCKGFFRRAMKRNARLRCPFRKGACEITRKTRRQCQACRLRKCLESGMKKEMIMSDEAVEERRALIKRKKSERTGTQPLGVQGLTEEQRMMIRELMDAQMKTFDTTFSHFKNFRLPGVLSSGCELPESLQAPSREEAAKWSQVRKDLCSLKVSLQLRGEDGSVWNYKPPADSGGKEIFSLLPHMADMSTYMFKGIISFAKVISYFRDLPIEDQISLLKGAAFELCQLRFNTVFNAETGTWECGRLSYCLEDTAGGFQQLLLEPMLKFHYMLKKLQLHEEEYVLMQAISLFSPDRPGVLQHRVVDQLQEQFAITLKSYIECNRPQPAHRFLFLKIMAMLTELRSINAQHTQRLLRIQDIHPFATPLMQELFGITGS
Experiment: CYP3A4 XREM reporter construct cotransfected with hPXR expression vector (pSG-hPXR) in HepG2 cells
Settings: FIG. 4; for action on the XREM via the hPXR: HepG2, XREM reporter + hPXR expression vector
From the text: The present inventors cotransfected a CYP3A4 5′-flanking region construct, containing the XREM and linked to a luciferase reporter, into HepG2 cells either with or without a hPXR expression construct (pSG-hPXR).
Many drugs induce the transcription of the CYP3A4 gene.

SMILES | action on the XREM via the hPXR | induction of the XREM construct (HepG2 cells transfected with XREM reporter)
CCC1(c2ccccc2)C(=O)NC(=O)NC1=O [phenobarbitone] | act on the XREM via the hPXR | –
Clc1ccccc1C(c1ccccc1)(c1ccccc1)n1ccnc1 [clotrimazole] | act on the XREM via the hPXR | induced the XREM construct in a manner analogous to that that occurs in vivo
